Source: US8460669B2, “Compositions and methods for identifying response targets and treating flavivirus infection responses” (Academia Sinica, priority 2005, dated 2013)

T1: MMR.Fc (Homo sapiens, UniProt P22897)
T1 construct: The extracellular domains of lectin receptors, TREMs and TLTs were cloned by the reverse-transcriptase polymerase chain reaction (RT-PCR); made in house; host or cells: 293-F (FreeStyle 293) cells
T1 sequence (P22897 19-1389 limits assumed): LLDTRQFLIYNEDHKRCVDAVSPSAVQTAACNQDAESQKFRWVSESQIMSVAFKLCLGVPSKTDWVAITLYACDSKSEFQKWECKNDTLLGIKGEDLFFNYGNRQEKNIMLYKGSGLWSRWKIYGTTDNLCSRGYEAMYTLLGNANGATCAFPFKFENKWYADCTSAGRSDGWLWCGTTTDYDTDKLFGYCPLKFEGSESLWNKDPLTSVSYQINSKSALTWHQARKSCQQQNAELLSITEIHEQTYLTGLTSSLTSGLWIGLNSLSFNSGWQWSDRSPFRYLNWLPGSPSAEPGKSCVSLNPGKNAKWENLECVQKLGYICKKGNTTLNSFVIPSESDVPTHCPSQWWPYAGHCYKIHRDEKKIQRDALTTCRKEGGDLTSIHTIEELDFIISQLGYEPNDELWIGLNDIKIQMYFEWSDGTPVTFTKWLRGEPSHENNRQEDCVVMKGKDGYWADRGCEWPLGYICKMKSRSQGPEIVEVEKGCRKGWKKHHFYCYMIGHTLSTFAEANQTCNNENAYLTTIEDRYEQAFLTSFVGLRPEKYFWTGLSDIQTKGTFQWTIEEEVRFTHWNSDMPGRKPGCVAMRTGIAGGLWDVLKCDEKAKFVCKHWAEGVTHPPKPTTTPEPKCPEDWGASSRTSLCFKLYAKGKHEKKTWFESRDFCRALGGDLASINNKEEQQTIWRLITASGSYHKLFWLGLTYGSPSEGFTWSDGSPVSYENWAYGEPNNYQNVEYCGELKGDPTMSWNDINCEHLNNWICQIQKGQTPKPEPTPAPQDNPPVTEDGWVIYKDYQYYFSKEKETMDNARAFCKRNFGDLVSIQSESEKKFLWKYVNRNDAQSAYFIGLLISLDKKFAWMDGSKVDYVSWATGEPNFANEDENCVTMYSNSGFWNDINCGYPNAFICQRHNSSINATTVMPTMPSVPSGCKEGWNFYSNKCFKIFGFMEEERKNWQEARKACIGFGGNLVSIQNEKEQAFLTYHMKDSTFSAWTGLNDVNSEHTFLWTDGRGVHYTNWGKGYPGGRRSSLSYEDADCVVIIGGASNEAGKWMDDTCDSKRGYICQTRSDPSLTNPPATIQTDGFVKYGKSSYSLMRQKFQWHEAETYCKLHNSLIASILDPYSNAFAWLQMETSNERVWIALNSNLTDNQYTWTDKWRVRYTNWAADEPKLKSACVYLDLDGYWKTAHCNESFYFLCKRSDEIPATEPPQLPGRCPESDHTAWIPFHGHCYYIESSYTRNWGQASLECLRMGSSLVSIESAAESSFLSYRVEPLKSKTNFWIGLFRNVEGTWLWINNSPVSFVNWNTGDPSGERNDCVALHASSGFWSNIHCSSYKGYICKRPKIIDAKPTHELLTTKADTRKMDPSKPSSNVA

T2: DC-SIGN (Homo sapiens, UniProt Q9NNX6)
T2 construct: The extracellular domains of lectin receptors, TREMs and TLTs were cloned by the reverse-transcriptase polymerase chain reaction (RT-PCR); made in house; host or cells: 293-F (FreeStyle 293) cells
T2 sequence (Q9NNX6 59-404 limits assumed): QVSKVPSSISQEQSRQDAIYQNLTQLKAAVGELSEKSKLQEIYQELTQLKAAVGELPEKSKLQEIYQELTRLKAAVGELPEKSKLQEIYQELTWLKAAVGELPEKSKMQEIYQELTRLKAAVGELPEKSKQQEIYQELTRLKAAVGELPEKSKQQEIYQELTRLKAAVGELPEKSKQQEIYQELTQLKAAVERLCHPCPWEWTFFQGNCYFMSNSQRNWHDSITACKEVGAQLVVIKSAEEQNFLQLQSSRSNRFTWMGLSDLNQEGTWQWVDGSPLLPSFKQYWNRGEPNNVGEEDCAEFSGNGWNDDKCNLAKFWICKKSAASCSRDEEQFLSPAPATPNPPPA

T3: DC-SIGN (Homo sapiens, UniProt Q9NNX6)
T3 construct: expressed in transfected cells; host or cells: 293T cells
T3 sequence (Q9NNX6 1-404): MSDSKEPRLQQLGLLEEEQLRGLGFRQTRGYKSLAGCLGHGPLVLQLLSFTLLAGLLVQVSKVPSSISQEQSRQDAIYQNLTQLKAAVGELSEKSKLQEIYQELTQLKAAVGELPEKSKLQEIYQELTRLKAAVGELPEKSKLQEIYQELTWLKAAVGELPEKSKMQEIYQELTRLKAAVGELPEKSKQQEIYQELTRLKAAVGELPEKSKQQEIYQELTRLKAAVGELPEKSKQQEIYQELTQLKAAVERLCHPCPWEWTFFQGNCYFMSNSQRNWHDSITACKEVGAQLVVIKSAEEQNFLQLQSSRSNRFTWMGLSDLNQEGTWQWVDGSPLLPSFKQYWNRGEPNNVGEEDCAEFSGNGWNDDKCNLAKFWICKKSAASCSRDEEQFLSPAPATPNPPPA

B1: sDVLR1/CLEC5A: alternatively spliced form of human DVLR1/CLEC5A (aa 43-65 deleted), SEQ ID NO: 73 (protein)
chain: MNWHMIISGLIVVVLKVVGMTLFLLYFPQIFNKSNDGFTTTRSYGTVCPKDWEFYQARCFFLSTSESSWNESRDFCKGKGSTLAIVNTPEKLFLQDITDAEKYFIGLIYHREEKRWRWINNSVFNGNVTNQNQNFNCATIGLTKTFDAASCDISYRRICEKNAK
modifications: Human

Legend:
MMR.Fc = target: T1, MMR.Fc; assay: Sugar competition EIA, MMR.Fc binding to GLPS-F3; conditions: sugar 1 mg/ml
Experimental: (§1) The interaction between GLPS-F3 and receptor.Fc was then tested. Unbiotinylated GLPS-F3 was immobilized at 100 ng/well as described above, and 100 μL receptor.Fc fusion protein (1 μg/ml in 2 mM MgCl2/2 mM CaCl2/1% BSA/TBST) was added into each well and incubated for 1 hour at room temperature. After washing with TBST, wells were incubated with peroxidase-conjugated goat anti-human IgG Ab (1:5000 dilution, Jackson ImmunoResearch Laboratories) in blocking buffer at room temperature for 30 min. Wells were incubated with 100 μL TMB substrate for 15 min after TBST washing and read at 450 nm in a Fusion plate reader (Perkin Elmer). The results were normalized with respect to Fc.Dectin-1 binding (Dectin-1 is a known lectin receptor that binds to β-1,3-glucan which is the backbone found in GLPS-F3). FIG. 6B depicts in graphical form the affinity of each receptor for GLPS-F3 relative to Dectin-1. […] There was also weaker but positive GLPS-F3 binding ability (25-50% binding intensity compared to Fc.dectin-1) found in Fc.NKG2D, Fc.MINCLE, Fc.mKCR, DCAL1.Fc, DEC205.Fc, Endo180.Fc and NKp30(NCR3).Fc.
(§2) To understand the interaction of GLPS-F3 with specific innate immunity receptors, the polysaccharides mannan and β-glucan and the monosaccharides D-mannose (Man), D-glucose (Glc), N-acetyl-glucosamine (GlcNAc), D-galactose (Gal), N-acetyl-galactosamine (GalNAc), L-fucose (Fuc) and sialic acid, were used in a competition assay. […] The assays were carried out as in Example 9, with the addition of 1 mg/ml of each polysaccharide or monosaccharide.

DC-SIGN [1] = target: T2, DC-SIGN; assay: Sugar competition EIA, Fc.DC-SIGN binding to GLPS-F3; conditions: sugar 1 mg/ml
Experimental: as §1, §2

DC-SIGN [2] = target: T3, DC-SIGN; assay: Sugar competition, biotinylated DV binding to DC-SIGN-transfected 293T cells; format: cell-based; conditions: flow cytometry
Experimental: In FIG. 16b, complexes of DV (5×10^6 PFU) with receptor.Fc (5 μg) were immunoprecipitated and detected on westerns with mAb to DV envelope (E) protein. […] FIGS. 16d and 16e show sugar competition assays wherein both DC-SIGN (CLEC4L) and DVLR1/CLEC5A increase DV binding to human 293T cells (FIG. 16d), while addition of sugars inhibits biotinylated DV binding to DC-SIGN- (left panel) or DLVR1/CLEC5A- (right panel) transfected 293T cells in a dose-dependent manner as determined by flow cytometry (FIG. 16e). According to FIG. 16e, MFI represents mean fluorescence intensity. Units (U) for monosaccharide (mannose and fucose) and polysaccharide (mannan) are mM and mg/ml, respectively. […] Data are expressed as the mean±s.d. of three independent experiments. Two-tailed, Student's t-tests were performed.
There are two conserved N-linked glycosylation sites at Asn-67 and Asn-153 of E protein (Pokidysheva, E. et al., Cell 124:485-93 (2006)), and the attached glycans (with terminal fucose and mannose) have been implicated in cellular attachment and viral entry (Modis, Y. et al., J. Virol. 79:1223-1231 (2005)). To investigate the participation of glycans in the association of DVLR1/CLEC5A with DV, virions were incubated with fucose, mannose, or mannan; where the last two sugars are the ligands for DC-SIGN (Mitchell et al., J. Biol. Chem. 276: 28939-28945 ([…])).

Langerin = target: T4, Langerin (Homo sapiens, UniProt Q9UJ71); assay: Sugar competition EIA, Fc.Langerin binding to GLPS-F3; conditions: sugar 1 mg/ml
T4 construct: The extracellular domains of lectin receptors, TREMs and TLTs were cloned by the reverse-transcriptase polymerase chain reaction (RT-PCR); made in house; host or cells: 293-F (FreeStyle 293) cells
Experimental: as §1, §2

TLR4.Fc = target: T5, TLR4.Fc (Homo sapiens, UniProt O00206); assay: Sugar competition EIA, TLR4.Fc binding to GLPS-F3; conditions: sugar 1 mg/ml
T5 construct: The extracellular domains of several innate immunity receptors from immune cells were cloned by reverse-transcription polymerase chain reaction (RT-PCR); made in house; host or cells: 293-F (FreeStyle 293) cells
Experimental: as §1, §2

Dengue virus = assay: ELISA of receptor.Fc interaction with Dengue virus; format: binding; conditions: receptor.Fc 1 μg; DV 5×10^6
Experimental: One μg of each receptor.Fc fusion protein was coated onto microtiter plates overnight at 4° C. DV (5×10^6 particles) of strain 16681 (a DEN2 strain) in binding buffer (1% BSA, 2 mM CaCl2, 2 mM MgCl2, 50 mM Tris-HCl pH 7.5, 150 mM NaCl) was then added to the plates and the plates were incubated for 2 hours. After washing non-bound virus, a biotinylated anti-DEN2 envelope protein antibody (Wu et al., J Virol, 2002. 76(8): p. 3596-604) was applied to bind to the virus for 1 hour. Diluted horseradish peroxidase-conjugated streptavidin was then added to the plates, followed by a 1 hour incubation. TMB substrate was then added and the plates were read using an ELISA reader at OD450 nm.
The microtiter plate assay was repeated in the presence of EDTA (10 mM) to chelate Ca^++ cations.
The microtiter plate assay was also repeated for DVLR1/CLEC5A.Fc fusion protein with DV particles (5×10^6) that had been 1) preincubated with 500 U of the glycosidase PNGaseF (New England Biolabs, Inc.) overnight at 37° C.; or 2) treated with dithiothreitol (DTTI) (0.1M); or 3) incubated at 95° C. for 5 minutes; or 4) UV irradiated for 5 minutes. The results are shown in FIG. 8D (asterisks indicate where the binding affinity of DVLR1/CLEC5A.Fc fusion protein is altered by modification of the virus relative to non-treated virus; ** p<0.01, *** p<0.001, Student's t test). […]

JEV = assay: ELISA of DVLR1/CLEC5A.Fc interaction with JEV; format: binding, Japanese encephamyelitis virus; conditions: 1 μg; JEV 5×10^6 PFU
Experimental: Like with DV, JEV follows a similar virus infection response pattern, which is believed to be the same or similar in all flaviviruses. […] (1 μg), with JEV and DV (5×10^6 PFU), respectively, were determined by ELISA. DV interacts with human DVLR1/CLEC5A (187 amino acid in length) SEQ ID NO: 72, but not the alternatively spliced form sDVLR1/CLEC5A (aa 43-65 is deleted). SEQ ID NO: 73. […] DAP12 in DV-infected macrophages were precipitated by anti-DAP12 mAb, blotted to nitrocellulose paper after fractionation on SDS-PAGE, followed by incubation with antibodies against phosphotyrosine and DAP12, respectively. JEV-induced DAP12 phosphorylation (m.o.i.=5) is inhibited by pLL3.7/DVLR1/CLEC5A. […] JEV-induced TNF-α secretion is inhibited by […] mAb (right). Data are expressed as the mean±s.d. of three independent experiments.

T5 sequence (O00206 24-631 limits assumed): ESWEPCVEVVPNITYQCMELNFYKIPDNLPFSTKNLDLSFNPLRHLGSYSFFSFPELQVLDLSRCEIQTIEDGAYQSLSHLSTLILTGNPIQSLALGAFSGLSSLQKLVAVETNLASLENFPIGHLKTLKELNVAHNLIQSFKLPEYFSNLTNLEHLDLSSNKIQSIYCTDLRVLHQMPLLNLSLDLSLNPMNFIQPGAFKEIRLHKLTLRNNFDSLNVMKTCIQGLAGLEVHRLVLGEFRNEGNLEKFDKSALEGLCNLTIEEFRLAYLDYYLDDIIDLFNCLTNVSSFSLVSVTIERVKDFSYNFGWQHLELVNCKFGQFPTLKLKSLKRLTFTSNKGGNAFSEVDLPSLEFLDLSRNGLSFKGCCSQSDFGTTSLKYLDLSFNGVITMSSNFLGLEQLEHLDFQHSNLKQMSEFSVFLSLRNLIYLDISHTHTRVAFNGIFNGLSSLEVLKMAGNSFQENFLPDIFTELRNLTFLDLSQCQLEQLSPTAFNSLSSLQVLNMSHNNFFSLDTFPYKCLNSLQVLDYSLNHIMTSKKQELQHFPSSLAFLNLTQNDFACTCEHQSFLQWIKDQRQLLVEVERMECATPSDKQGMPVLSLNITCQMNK
T4 sequence (Q9UJ71 65-328 limits assumed): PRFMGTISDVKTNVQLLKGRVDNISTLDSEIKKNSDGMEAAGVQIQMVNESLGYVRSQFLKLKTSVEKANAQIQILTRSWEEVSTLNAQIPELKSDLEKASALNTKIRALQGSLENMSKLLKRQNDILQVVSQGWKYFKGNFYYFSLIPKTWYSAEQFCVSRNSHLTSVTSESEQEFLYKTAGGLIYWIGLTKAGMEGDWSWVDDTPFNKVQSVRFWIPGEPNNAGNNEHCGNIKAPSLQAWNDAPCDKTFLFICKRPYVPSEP

Molecule	inhibition of interaction between GLPS-F3 and MMR.Fc (MMR.Fc) [%]	inhibition of binding of Fc.DC-SIGN to GLPS-F3 (DC-SIGN [1]) [%]	inhibition of the DC-SIGN-DV interaction (DC-SIGN [2])	inhibition of interaction between Fc.Langerin and GLPS-F3 (Langerin) [%]	Percentage of binding of TLR4.Fc to GLPS-F3 relative to binding in absence of sugar competitor (TLR4.Fc) [%]	interaction of receptor.Fc with Dengue virus (ELISA) (Dengue virus)	interaction with JEV (ELISA) (JEV)
O=C[C@@H](O)[C@@H](O)[C@H](O)[C@H](O)CO [Man, D-mannose]	87	72	dose-dependent inhibition	26	89 ± 2.6	–	–
B1	–	–	–	–	–	not	only interacts
